Data set [1] deals with phosphorylation of downstream signaling proteins TBK1 and IRF3. Description: Western blotting of STING sub-immune signaling pathway activation. Particulars: cGAMP alone; FIG. 7. The format is cell-based. As for the experimental part: First, the A431 cell line was seeded in a transparent 12-well plate and cultured for one day. Thereafter, the cells were treated with the compounds of Formulas 1 to 6, respectively, and then cultured for additional 24 hours. Finally, after supernatant culture medium of the cells was removed, the remaining supernatant was diluted and removed with PBS (phosphate buffer saline) to prepare a Western blotting sample. All procedures for preparing Western blotting sample were performed at 4° C. […] The protein concentration of the supernatant was measured by using the Micro BCA™ protein assay kit (ThermoFisher) according to the protocol of the manufacturer. […] The treated samples were analyzed by SDS-PAGE, then transferred to a PVDF membrane, and cultured in a TBST solution containing 4% BSA for 30 minutes. […] Finally, after four TBST washing processes, the solution was developed with an ECL (enhanced chemiluminescence) prime solution of Amersham, the chemical luminescence signal was measured by using ChemiDoc MP of Bio-Rad Laboratories, Inc., the obtained results were quantified by using the ImageLab 6.0 program, and the results were plotted by using the Prism 8.0 program. […]
(In western blotting, separated proteins are transferred to a membrane and probed.)

A short description of data set [2]: Body weight and toxicity signals in CT26 syngeneic mouse model. The format is in vivo. The note with it: treated individually or in combination, FIG. 24. The procedure: 2×10^5 CT26 cell lines were prepared in 50 μL culture medium and subcutaneously injected. […] The cGAMP solution was manufactured with a final composition of PEG400:distilled water=40:60, and 20 μL was injected each time. The solution of the compound of Formula 1 was manufactured with the composition of DMSO:PEG400:distilled water=2:40:58, and 20 μL was injected each time. The cGAMP solution was injected once every two days, four times in total, and the solution of the compound of Formula 1 was injected once every four days, two times in total, starting with the second administration of cGAMP. The size of the tumor was measured by using calipers every two days, and the volume thereof was calculated as (length×width×height/2). The body weight of the mice was also measured every two days.

Consider one molecule from patent US20250127778A1, “CANCER IMMUNOTHERAPY COMPOSITION CONTAINING INTERACTION INHIBITOR OF STING AND TRIM29 AS ACTIVE INGREDIENT” (SPARK BIOPHARMA, INC, priority 2021, published 2025).

SMILES strings stand for the structures.

For `Nc1nc2c(ncn2[C@@H]2O[C@@H]3COP(=O)(O)O[C@H]4[C@@H](O)[C@H](n5cnc6c(N)ncnc65)O[C@@H]4COP(=O)(O)O[C@@H]2[C@@H]3O)c(=O)[nH]1` [cGAMP, 2′,3′-Cyclic GMP-AMP, reference compound], the “phosphorylation of TBK1 and IRF3” value in data set [1] was “increased”. Also, the “body weight change or signal of toxicity” value in data set [2] is reported as “significant change in body weight or signal of toxicity was not observed”.
